According to patent US8193191B2, “Urotensin II receptor antagonists” (Janssen Pharmaceutica N.V., priority 2006, dated 2012):
“And” between values parts separate entries of the source, which are not always exact repeats. Equal values may be shown once. Read-outs that look alike come from different tables or passages of the source.

What was measured:
[1] = molecular target: T1, rat GPR14 (U-II receptor) (Rattus norvegicus, UniProt P49684); experiment: Rat UII Calcium Mobilization FLIPR Assay; format: cell-based; conditions: for inhibition at 10 µM / inhibition at 50 µM: CHO, 5 min, agonist-induced Ca2+ mobilization (FLIPR), CHO cells with rat UII receptor; for inhibition at 10 µM: 10 μM compound, read-out: % I @ 10; for inhibition at 50 µM: 50 μM compound, read-out: % I @ 50
T1 construct: expressed in transfected cells
T1 sequence (P49684 1-386): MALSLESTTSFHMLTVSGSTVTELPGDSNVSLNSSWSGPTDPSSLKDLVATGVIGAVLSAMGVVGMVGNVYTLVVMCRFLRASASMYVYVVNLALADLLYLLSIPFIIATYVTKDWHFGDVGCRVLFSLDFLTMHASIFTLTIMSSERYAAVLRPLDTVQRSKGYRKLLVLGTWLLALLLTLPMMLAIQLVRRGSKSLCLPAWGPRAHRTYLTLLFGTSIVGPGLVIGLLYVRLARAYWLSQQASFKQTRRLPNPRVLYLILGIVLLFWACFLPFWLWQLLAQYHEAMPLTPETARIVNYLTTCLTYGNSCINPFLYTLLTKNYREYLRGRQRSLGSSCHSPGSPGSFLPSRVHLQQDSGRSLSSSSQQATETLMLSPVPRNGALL
Summary of the method: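 Fluorescent calcium signals were recorded at room temperature (23° C) by FLIPR. Stable rat U-II receptor CHO lines had been dye-loaded for 1 h at 37° C in pH 7.4 HBSS containing 20 mM HEPES, 0.1% BSA and 2.5 mM probenecid.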

[2] = molecular target: T2, endogenous human UII receptor (Homo sapiens, UniProt Q9UKP6); experiment: Human Radioligand Binding Assay ((^125I)-U-II binding to human skeletal muscle myoblasts)
T2 sequence (Q9UKP6 1-389): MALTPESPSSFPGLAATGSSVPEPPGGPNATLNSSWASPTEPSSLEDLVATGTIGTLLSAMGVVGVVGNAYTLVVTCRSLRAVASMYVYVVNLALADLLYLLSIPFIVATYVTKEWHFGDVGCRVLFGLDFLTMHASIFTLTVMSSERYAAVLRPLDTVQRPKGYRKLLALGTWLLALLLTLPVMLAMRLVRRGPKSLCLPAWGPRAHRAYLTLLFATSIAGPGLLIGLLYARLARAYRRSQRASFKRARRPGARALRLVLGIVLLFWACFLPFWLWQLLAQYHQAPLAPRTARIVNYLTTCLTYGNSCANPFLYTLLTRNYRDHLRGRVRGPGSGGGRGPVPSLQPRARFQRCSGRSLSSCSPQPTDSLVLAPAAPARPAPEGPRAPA

[3] = Inhibition of Acetyl-cyclic[Cys-Phe-Trp-Lys-(2-Nal)-Cys]-NH2 induced Ca2+ mobilization (FLIPR) in CHO cells transfected with rat UII receptor, read-out: IC50
[4] = average value for the compound tested, read-out: Rat UII FLIPR Average IC50

Compound	inhibition at 10 µM [1]	inhibition at 50 µM [1]	IC50 [1, 3]	Ki [2]	IC50 [1, 4]
COc1ccc(C(CCCCNC(=O)OC(C)(C)C)N2C(=O)c3cccc(N4CCN([C@H](C)c5ccccc5)CC4)c3C2=O)cc1OC (stereo partly drawn) [Cpd 69, (5-(3,4-dimethoxy-phenyl)-5-{1,3-dioxo-4-[4-(1R)-(1-phenyl-ethyl)-piperazin-1-yl]-1,3-dihydro-isoindol-2-yl}-pentyl)-carbamic acid tert-butyl ester]	11%	52%	65000 nM	> 10000 nM	–
COc1ccc(C(CCCCN)N2C(=O)c3cccc(N4CCN([C@H](C)c5ccccc5)CC4)c3C2=O)cc1OC (stereo partly drawn) [Cpd 70, 2-[5-amino-1-(3,4-dimethoxy-phenyl)-pentyl]-4-[4-(1R)-(1-phenyl-ethyl)-piperazin-1-yl]-isoindole-1,3-dione]	102%	101%	300 nM and 270 nM	5400 nM	–
COc1ccc(CN2C(=O)c3cccc(C4CCN(Cc5ccccc5)CC4)c3C2=O)cc1OC [Cpd 76, 4-(1-benzyl-piperidin-4-yl)-2-(3,4-dimethoxy-benzyl)-isoindole-1,3-dione]	98%	99%	960 nM	1500 nM	–
COc1ccc(CN2C(=O)c3cccc(N4CCN(Cc5ccc(C)o5)CC4)c3C2=O)cc1OC [Cpd 77, 2-(3,4-dimethoxy-benzyl)-4-[4-(5-methyl-furan-2-ylmethyl)-piperazin-1-yl]-isoindole-1,3-dione]	–	–	–	7200 nM	850 nM
COc1ccc(CN2C(=O)c3cccc(N4CCN(Cc5ccoc5)CC4)c3C2=O)cc1OC [Cpd 78, 2-(3,4-dimethoxy-benzyl)-4-(4-furan-3-ylmethyl-piperazin-1-yl)-isoindole-1,3-dione]	–	–	–	2600 nM	270 nM
COc1ccc(CN2C(=O)c3cccc(N4CCN(Cc5cccnc5)CC4)c3C2=O)cc1OC [Cpd 79, 2-(3,4-dimethoxy-benzyl)-4-(4-pyridin-3-ylmethyl-piperazin-1-yl)-isoindole-1,3-dione]	–	–	–	> 10000 nM	1200 nM
COc1ccc(CN2C(=O)c3cccc(N4CCN(CC5CCCC5)CC4)c3C2=O)cc1OC [Cpd 80, 4-(4-cyclopentylmethyl-piperazin-1-yl)-2-(3,4-dimethoxy-benzyl)-isoindole-1,3-dione]	–	–	–	> 10000 nM	1300 nM
COc1ccc(CN2C(=O)c3cccc(N4CCN(Cc5cccs5)CC4)c3C2=O)cc1OC [Cpd 81, 2-(3,4-dimethoxy-benzyl)-4-(4-thiophen-2-ylmethyl-piperazin-1-yl)-isoindole-1,3-dione]	–	–	–	> 10000 nM	1400 nM
COc1ccc(CN2C(=O)c3cccc(N4CCN(Cc5ccsc5)CC4)c3C2=O)cc1OC [Cpd 83, 2-(3,4-dimethoxy-benzyl)-4-(4-thiophen-3-ylmethyl-piperazin-1-yl)-isoindole-1,3-dione]	–	–	–	1600 nM	230 nM
COc1ccc(CN2C(=O)c3cccc(N4CCN(Cc5ccccc5O)CC4)c3C2=O)cc1OC [Cpd 85, 2-(3,4-dimethoxy-benzyl)-4-[4-(2-hydroxy-benzyl)-piperazin-1-yl]-isoindole-1,3-dione]	–	–	–	3600 nM	2200 nM
C/C=C(\C)CN1CCN(c2cccc3c2C(=O)N(Cc2ccc(OC)c(OC)c2)C3=O)CC1 [Cpd 86, (E)-2-(3,4-dimethoxy-benzyl)-4-[4-(2-methyl-but-2-enyl)-piperazin-1-yl]-isoindole-1,3-dione]	–	–	–	1300 nM	290 nM
COc1ccc([C@@H](CCCNS(=O)(=O)c2ccc(C)s2)N2C(=O)c3cccc(N4CCN([C@H](C)c5ccccc5)CC4)c3C2=O)cc1OC [Cpd 126, (R)-5-methyl-thiophene-2-sulfonic acid (4-(3,4-dimethoxy-phenyl)-4-{1,3-dioxo-4-[4-(1R)-(1-phenyl-ethyl)-piperazin-1-yl]-1,3-dihydro-isoindol-2-yl}-butyl)-amide]	–	–	–	340 nM	81 nM
COc1ccc([C@@H](CCCNS(=O)(=O)c2sc(NC(C)=O)nc2C)N2C(=O)c3cccc(N4CCN([C@H](C)c5ccccc5)CC4)c3C2=O)cc1OC [Cpd 130, (R)-N-[5-(4-(3,4-dimethoxy-phenyl)-4-{1,3-dioxo-4-[4-(1R)-(1-phenyl-ethyl)-piperazin-1-yl]-1,3-dihydro-isoindol-2-yl}-butylsulfamoyl)-4-methyl-thiazol-2-yl]-acetamide]	–	–	–	> 300 nM	54 nM
COc1ccc([C@@H](CCCNS(=O)(=O)c2cc(C)sc2C)N2C(=O)c3cccc(N4CCN([C@H](C)c5ccccc5)CC4)c3C2=O)cc1OC [Cpd 131, (R)-2,5-dimethyl-thiophene-3-sulfonic acid (4-(3,4-dimethoxy-phenyl)-4-{1,3-dioxo-4-[4-(1R)-(1-phenyl-ethyl)-piperazin-1-yl]-1,3-dihydro-isoindol-2-yl}-butyl)-amide]	–	–	–	> 300 nM	120 nM
COc1ccc([C@@H](CCCNS(=O)(=O)C2CCS(=O)(=O)C2)N2C(=O)c3cccc(N4CCN([C@H](C)c5ccccc5)CC4)c3C2=O)cc1OC (stereo partly drawn) [Cpd 133, (R)-1,1-dioxo-tetrahydro-1λ^6-thiophene-3-sulfonic acid (4-(3,4-dimethoxy-phenyl)-4-{1,3-dioxo-4-[4-(1R)-(1-phenyl-ethyl)-piperazin-1-yl]-1,3-dihydro-isoindol-2-yl}-butyl)-amide]	–	–	–	59 nM	14 nM
CCn1cc(S(=O)(=O)NCCC[C@H](c2ccc(OC)c(OC)c2)N2C(=O)c3cccc(N4CCN([C@H](C)c5ccccc5)CC4)c3C2=O)cn1 [Cpd 134, (R)-1-ethyl-1H-pyrazole-4-sulfonic acid (4-(3,4-dimethoxy-phenyl)-4-{1,3-dioxo-4-[4-(1R)-(1-phenyl-ethyl)-piperazin-1-yl]-1,3-dihydro-isoindol-2-yl}-butyl)-amide]	–	–	–	68 nM	19 nM
COc1ccc([C@@H](CCCNS(=O)(=O)c2cn(C)nc2C(F)(F)F)N2C(=O)c3cccc(N4CCN([C@H](C)c5ccccc5)CC4)c3C2=O)cc1OC [Cpd 135, (R)-1-methyl-3-trifluoromethyl-1H-pyrazole-4-sulfonic acid (4-(3,4-dimethoxy-phenyl)-4-{1,3-dioxo-4-[4-(1R)-(1-phenyl-ethyl)-piperazin-1-yl]-1,3-dihydro-isoindol-2-yl}-butyl)-amide]	–	–	–	190 nM	56 nM
COc1ccc([C@@H](CCNC(=O)OCc2ccccc2)N2C(=O)c3cccc(N4CCN([C@H](C)c5ccccc5)CC4)c3C2=O)cc1OC [Cpd 216, (R)-(3-(3,4-dimethoxy-phenyl)-3-{1,3-dioxo-4-[4-(1R)-(1-phenyl-ethyl)-piperazin-1-yl]-1,3-dihydro-isoindol-2-yl}-propyl)-carbamic acid benzyl ester]	–	–	–	130 nM	64 nM
